Results as given in patent US20010009913A1, “Anxiety method” (priority 1999, published 2001).
“Also recorded” adds a separate entry of the source. Where two headings read alike, the source gives them in different places. One block for each compound: values may come before it.

Key:
human 5-HT1A receptor = molecular target: T1, human 5-HT1A receptor (Homo sapiens, UniProt P08908); experiment: 5-HT1A receptor binding assay; settings: for Ki: read-out: K1 value
T1 construct: expressed in transfected cells; host or cells: HEK293 cells
T1 sequence (P08908 1-422): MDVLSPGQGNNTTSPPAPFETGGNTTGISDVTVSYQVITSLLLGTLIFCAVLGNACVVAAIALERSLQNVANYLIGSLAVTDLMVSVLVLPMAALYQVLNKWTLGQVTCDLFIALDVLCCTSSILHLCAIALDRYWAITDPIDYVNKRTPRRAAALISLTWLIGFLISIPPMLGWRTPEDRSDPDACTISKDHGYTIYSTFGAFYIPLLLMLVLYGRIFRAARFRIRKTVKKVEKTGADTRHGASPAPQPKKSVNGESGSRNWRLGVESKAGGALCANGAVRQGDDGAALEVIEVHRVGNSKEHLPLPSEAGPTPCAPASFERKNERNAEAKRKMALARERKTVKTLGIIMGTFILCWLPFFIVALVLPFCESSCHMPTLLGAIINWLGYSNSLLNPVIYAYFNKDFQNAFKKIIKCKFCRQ
Procedure: Membranes are prepared for binding using the human 5-HT1A receptor expressed in HEK293 cells. Cells are collected and ruptured using a dounce homogenizer. The cells are spun at 18000xg for 10 minutes and the pellet is resuspended in assay buffer, frozen in liquid nitrogen and kept at −80° C. until the day of the assay.
A total of 30 ug protein is used per well. The assay is carried out in 96-deep-well plates. The assay buffer is 50 mM HEPES containing 2.5 mM MgCl2 and 2 mM EGTA. […] 10 mM serotonin serves as blocking agent to determine non-specific binding. The reaction is terminated by the addition of 1 ml of ice cold 50 mM HEPES buffer and rapid filtration through a Brandel Cell Harvester using Whatman GF/B filters. The filter pads are counted in an LKB Trilux liquid scintillation counter. IC50 values are determined using non-linear regression by Excel-fit.

CYP3A4 = experiment: Inhibition of the metabolism of buspirone by ketoconazole in pooled HLM; settings: ketoconazole concentrations up to 0.125 μM
rat pups = experiment: Rat pup isolation-induced ultrasonic vocalization test (vocalization and locomotor activity); format: in vivo; settings: sc, 30 min prior to test; for ID50, dose predicted to reduce the number of ultrasonic calls by 50%: 9-11 day old rat pups, cold plate
Source text: Ultrasonic vocalizations emitted by rat pups following isolation from their mother and littermates and subjected to a variety of environmental stimuli (e.g., cold temperature) has proven to be a sensitive method for assessing potential anxiolytic and anxiogenic compounds (Winslow and Insel, 1991, Psychopharmacology, 105:513-520). Psychoactive compounds purported to be anxiolytic suppress the frequency of ultrasonic calls whereas, calls are increased by drugs with anxiogenic properties. More importantly, the isolation-induced ultrasonic vocalization paradigm appears to be most sensitive for detecting anxiolytic properties across a broad spectrum of drug classes such as benzodiazepines, 5-HT reuptake inhibitors, 5-HT1A agonists as well as NMDA antagonists.
Harlan Sprague-Dawley rat pups (male and female) were housed in polycarbonate cages with the dam until 9-11 days old. Thirty minutes before testing, pups were removed from the dam, placed into a new cage with a small amount of home bedding and brought into the lab and placed under a light to maintain body temperature at 37° C. Pups were then weighed, sexed, marked and returned to the litter group until behavioral assessment. Testing took place in a Plexiglas recording chamber that contained a metal plate maintained at (18-20° C.) with a 5×5 cm grid drawn on the plate. A microphone was suspended 10 cm above the plate to record ultrasonic vocalizations. Ultrasonic calls were recorded using the Noldus UltraVox system providing on-line analysis of the frequency and duration of calls. The number of grid cells entered by the pup was also collected by visual scoring. […] Immediately following the collection of the baseline measures, pups were injected with vehicle or drug subcutaneously at the nape of the neck and returned to its littermates. […] Baseline differences and percent change from baseline for the frequency of ultrasonic vocalizations and grid cell crossings were analyzed using a one-way ANOVA. […]

[1] = Modified Vogel Conflict test; format: in vivo; settings: earlier in-house testing
Source text: Earlier in-house functional testing of BMY 28674 utilized an in vivo test method based on modification of the Vogel Conflict test, a simple reliable conflict procedure for testing antianxiety agents (see: Vogel, et al., Psychopharmacologia, (Berl.) 21, pp.1-7, 1971). […] No useful antianxiety activity has been ascribed to BMY 28674 previously.

[2] = Human pharmacokinetic study, oral buspirone BID for 25 days
dorsal raphe neurons [3] = experiment: Inhibition of dorsal raphe neuronal firing after systemic administration; format: in vivo; settings: previous in-house testing, I.V. and intragastric, rats
Source text: See: VanderMaelen, et al., Eur. J. Pharmacol., 129, pp. 123-30, 1986. While one metabolite, the structural fragment 1-(2-pyrimidinyl)piperazine, also known as 1-PP, [drawing 3]

dorsal raphe neurons [4] = settings: VanderMaelen et al. 1986; cited from earlier work
[5] = Gammans et al. 1986; cited from earlier work
[6] = membranes of HEK293 cells, 1 nM 3H-8-OH-DPAT, read-out: IC50
[7] = membranes of HEK293 cells, 1 nM 3H-8-OH-DPAT

- IC50 (human 5-HT1A receptor; [6]): 928 nM
- Ki (human 5-HT1A receptor; [7]): 464 nM
Structure (SMILES): O=C1CC2(CCCC2)CC(=O)N1CCCCN1CCN(c2ncc(O)cn2)CC1 [5-OH-buspirone (BMY 14131)]

Structure (SMILES): CC(=O)N1CCN(c2ccc(OCC3COC(Cn4ccnc4)(c4ccc(Cl)cc4Cl)O3)cc2)CC1 (centres unmarked) [ketoconazole]
- effect on buspirone metabolism (CYP3A4): No effect

- IC50 (human 5-HT1A receptor; [6]): 652 nM
- Ki (human 5-HT1A receptor; [7]): 326 nM
Structure (SMILES): O=C1CC2(CCC(O)C2)CC(=O)N1CCCCN1CCN(c2ncccn2)CC1 (centres unmarked) [3-OH-buspirone (BMY 14295)]

Structure (SMILES): O=C1CC2(CCCC2)C(O)C(=O)N1CCCCN1CCN(c2ncccn2)CC1 (centres unmarked) [BMY 28674, 6-hydroxy-8-[4-[4-(2-pyrimidinyl)-piperazinyl]-butyl]-8-azaspiro[4.5]-7,9-dione]
- IC50 (human 5-HT1A receptor; [6]): 114 nM
- Ki (human 5-HT1A receptor; [7]): 57 nM
- ID50, dose predicted to reduce the number of ultrasonic calls by 50% (rat pups): 0.13 mg/kg
- ID50 dose estimated to reduce locomotor activity (rat pups; grid cell crossings): 0.41 mg/kg
- antianxiety response in the Vogel test [1]: did not elicit an antianxiety response
- blood concentration of BMY 28674 relative to 1-PP ([2]; after oral buspirone, human subjects): several-fold greater; also recorded: several-fold higher

Structure (SMILES): c1cnc(N2CCNCC2)nc1 [1-PP, 1-(2-pyrimidinyl)piperazine]
- IC50 (human 5-HT1A receptor): > 1000 nM
- binding / affinity at the 5-HT1A receptor (human 5-HT1A receptor): does not demonstrate binding
- inhibition of dorsal raphe neuronal firing (dorsal raphe neurons [3]): weak inhibition

Structure (SMILES): O=C1CC2(CCCC2)CC(=O)N1CCCCN1CCN(c2ncccn2)CC1 [Buspirone]
- ID50, dose predicted to reduce the number of ultrasonic calls by 50% (rat pups): 0.10 mg/kg
- inhibition of firing of dorsal raphe neurons (dorsal raphe neurons [4]): potently inhibits
- variation of maximum plasma concentration between individuals [5]: up to 10 fold
- concentration at 2 h ([2]; human, blood, po): < 1 ng/mL
- safety and tolerability ([2]; multiple oral doses, five dose levels 5-30 mg BID, healthy adults, 25 days): safe and generally well tolerated
- mean blood level concentration of buspirone ([2]; oral buspirone BID, at the higher doses, FIG. 3): 1 to 2 ng/mL
